From article PMC8453635, “Piperidine Azasugars Bearing Lipophilic Chains: Stereoselective Synthesis and Biological Activity as Inhibitors of Glucocerebrosidase (GCase)” (The Journal of Organic Chemistry, 2021)

What was measured:
Format in all cases: biochemical
[1] = molecular target: T1, α-galactosidase EC 3.2.1.22 (Coffea arabica, UniProt Q42656); experiment: Commercial glycosidase screening; details: coffee beans, read-out: % Inhibition at 0.1 mM
T1 construct: purchased
Experimental: (§1) Preliminary biological evaluation of compounds 14 and 15 (at 100 μM inhibitor concentration) was performed toward a panel of 12 commercial glycosidases (α-L-fucosidase EC 3.2.1.51 from Homo sapiens, α-galactosidase EC 3.2.1.22 from coffee beans, β-galactosidases EC 3.2.1.23 from Escherichia coli and Aspergillus oryzae, α-glucosidases EC 3.2.1.20 from yeast and rice, amyloglucosidase EC 3.2.1.3 from Aspergillus niger, β-glucosidase EC 3.2.1.21 from almonds, α-mannosidase EC 3.2.1.24 from Jack beans, β-mannosidase EC 3.2.1.25 from snail, and β-N-acetylglucosaminidases EC 3.2.1.52 from Jack beans and bovine kidney).
(§2) The percentage (%) of inhibition for compounds 14 and 15 toward the corresponding glycosidase was determined by quadruplicate in the presence of 100 μM of the inhibitor on the well. Each enzymatic assay (final volume 0.12 mL) contains 0.01–0.5 units/mL of the enzyme (with previous calibration) and 4.2 mM aqueous solution of the appropriate p-nitrophenyl glycopyranoside (substrate) buffered to the optimal pH of the enzyme. Enzyme and inhibitor were pre-incubated for 5 min at rt, and the reaction started by addition of the substrate. After 20 min of incubation at 37 °C, the reaction was stopped by addition of 0.1 mL of sodium borate solution (pH 9.8). The p-nitrophenolate formed was measured by visible absorption spectroscopy at 405 nm (Asys Expert 96 spectrophotometer). Under these conditions, the p-nitrophenolate released led to optical densities linear with both reaction time and concentration of the enzyme.
(§3) Biological screening towards commercial glycosidases
(§4) α-L-fucosidase EC 3.2.1.51
(§5) α-galactosidase EC 3.2.1.22 […]
(§6) β-glucosidase EC 3.2.1.21
(§7) α-mannosidase EC 3.2.1.24
(§8) β-mannosidase EC 3.2.1.25 […]
(§9) “-“: no inhibition (or less than 15%) detected.

[2] = molecular target: T2, amyloglucosidase EC 3.2.1.3 (Aspergillus niger, UniProt P69328); experiment: Commercial glycosidase screening; details: read-out: % Inhibition at 0.1 mM
T2 construct: purchased
Experimental: as §1, §2, §3, §4, §5, §6, §7, §8, §9

[3] = system: α-L-fucosidase EC 3.2.1.51; experiment: Commercial glycosidase screening; details: Homo sapiens
Experimental: as §1, §2, §3, §4, §5, §6, §7, §8, §9

[4] = molecular target: T3, α-mannosidase EC 3.2.1.24 (Canavalia ensiformis, UniProt C0HJB3); experiment: Commercial glycosidase screening; details: Jack beans, read-out: % Inhibition at 0.1 mM
T3 construct: purchased
Experimental: as §1, §2, §3, §4, §5, §6, §7, §8, §9

[5] = system: β-glucosidase EC 3.2.1.21; experiment: Commercial glycosidase screening; details: almonds
Experimental: as §1, §2, §3, §4, §5, §6, §7, §8, §9

[6] = system: β-mannosidase EC 3.2.1.25; experiment: Commercial glycosidase screening; details: snail
Experimental: as §1, §2, §3, §4, §5, §6, §7, §8, §9

[7] = system: α-glucosidase EC 3.2.1.20; experiment: Commercial glycosidase screening
Experimental: as §1, §2, §3, §4
(§10) α-galactosidase EC 3.2.1.22
(§11) β-galactosidase EC 3.2.1.23
(§12) α-glucosidase EC 3.2.1.20
(§13) amyloglucosidase EC 3.2.1.3
as §6, §7
(§14) β-mannosidase EC 3.2.1.25
(§15) β-N-acetylglucosaminidase EC 3.2.1.52
as §9

[8] = system: β-N-acetylglucosaminidase EC 3.2.1.52; experiment: Commercial glycosidase screening
Experimental: as §1, §2, §3, §4, §10, §11, §12, §13, §6, §7, §14, §15, §9

[9] = molecular target: T4, β-galactosidase EC 3.2.1.23 (Aspergillus oryzae, UniProt Q2UCU3); experiment: Commercial glycosidase screening; details: read-out: % Inhibition at 0.1 mM
T4 construct: purchased
Experimental: as §1, §2, §3, §4, §10, §11, §12, §13, §6, §7, §14, §15, §9

[10] = molecular target: T5, β-galactosidase EC 3.2.1.23 (Escherichia coli, UniProt P00722); experiment: Commercial glycosidase screening; details: read-out: % Inhibition at 0.1 mM
T5 construct: purchased
Experimental: as §1, §2, §3, §4, §10, §11, §12, §13, §6, §7, §14, §15, §9

α-mannosidase = molecular target: T6, α-mannosidase (Homo sapiens, UniProt O00754); experiment: Human lysosomal glycosidase selectivity screening (leukocyte homogenate); details: 1 mM, read-out: percentage of inhibition, α-Man
T6 construct: from leukocytes isolated from healthy donors (controls); from tissue; host or cells: leukocytes from healthy donors, sonicated homogenate
Experimental: In order to avoid undesired inhibitory side effects of a potential new drug, it has to be selective for a given target. The selectivity of the newly synthesized compounds 14, 15, and 33·HCl toward GCase was then investigated, evaluating their inhibition at 1 mM concentration toward six other lysosomal glycosidases (namely, α-and β-mannosidases, α- and β-galactosidases, α-fucosidase, and α-glucosidase) in cell homogenates (leucocytes or lymphocytes) isolated from healthy donors. […] Indeed, only moderate inhibitory activity (ca. 50%) was found toward human β-galactosidase for both piperidines 14 and 15, while negligible inhibitory activity was detected in all other cases.
The effect of 1 mM concentration of 14, 15, and 33·HCl was assayed toward six lysosomal glycosidases other than GCase, namely, α-mannosidase, β-mannosidase, α-galactosidase, β-galactosidase, α-fucosidase from leukocytes isolated from healthy donors (controls) and α-glucosidase from lymphocytes isolated from healthy donors’ flesh blood (controls). Isolated leukocytes or lymphocytes were disrupted by sonication, and a micro BCA protein assay kit (Sigma-Aldrich) was used to determine the total protein amount for the enzymatic assay, according to the manufacturer’s instructions (for more details, see the Supporting Information section).
Selectivity of compounds 14, 15 and 33.HCl towards lysosomal enzymes.
The effect of 1 mM concentration of 14, 15 and 33.HCl was assayed towards six lysosomal glycosidases other than GCase, namely: α-mannosidase, β-mannosidase, α-galactosidase, β-galactosidase, α-fucosidase from leukocytes isolated from healthy donors (controls) and α-glucosidase from lymphocytes isolated from healthy donors’ flesh blood (controls). Isolated leukocytes or lymphocytes were disrupted by sonication, and a micro BCA protein assay kit (Sigma–Aldrich) was used to determine the total protein amount for the enzymatic assay, according to the manufacturer instructions. […]
Molecular Devices). Inhibition is given with respect to the control (without azasugar). Data are mean SD (n=3). […]
Inhibition is given with respect to the control (without azasugar). Data are mean SD (n=3). […]
(1 picture or pasted object on this page, not shown here) […]
α-Fucosidase activity was measured in a flat -bottomed 96 -well plate. Azasugar solution (3 μL), 4.29 μg/μL leukocytes homogenate 1:3 (7 μL), and substrate 4 -methylumbe lliferyl α-L-fucopyranoside (1.51 mM, 20 μL, Sigma –Aldrich) in Na phosphate/citrate buffer (0.2:0.1, M/M, pH 5.5) were incubated at 37 °C for 1 h. […]
Data are mean SD (n=3). S74 […]
α-Glucosidase activity was measured in a flat –bottomed 96 well plate. Azasugar solution (3 µL), 4.29 µg/µL lymphocytes homogenate (7µL) and 20 µL of substrate solution of 4 -methylumbelliferyl -α-D-glucopyranoside (Sigma -Aldrich) in Na a cetate buffer (0.2 M, pH 4.0) were incubated for 1 h at 37 °C. The reaction was stopped by the addition of a solution of sodium carbonate (200 µL; 0.5M, pH 10.7) containing Triton X -100 (0.0025 %), and the fluorescence of 4 -methylumbelliferone released by α-glucosidase activity was measured in […]
respect to the control (without azasugar). Data are means of 3 values. […]
Figure S 48. Activity of a panel of 6 hu man lysosomal glycosidases in the presence of compounds 14, 15 and 33.HCl (1 mM ). The corresponding calculated percentage of inhibition is indicated above each bar.

T6 sequence (O00754 50-1011): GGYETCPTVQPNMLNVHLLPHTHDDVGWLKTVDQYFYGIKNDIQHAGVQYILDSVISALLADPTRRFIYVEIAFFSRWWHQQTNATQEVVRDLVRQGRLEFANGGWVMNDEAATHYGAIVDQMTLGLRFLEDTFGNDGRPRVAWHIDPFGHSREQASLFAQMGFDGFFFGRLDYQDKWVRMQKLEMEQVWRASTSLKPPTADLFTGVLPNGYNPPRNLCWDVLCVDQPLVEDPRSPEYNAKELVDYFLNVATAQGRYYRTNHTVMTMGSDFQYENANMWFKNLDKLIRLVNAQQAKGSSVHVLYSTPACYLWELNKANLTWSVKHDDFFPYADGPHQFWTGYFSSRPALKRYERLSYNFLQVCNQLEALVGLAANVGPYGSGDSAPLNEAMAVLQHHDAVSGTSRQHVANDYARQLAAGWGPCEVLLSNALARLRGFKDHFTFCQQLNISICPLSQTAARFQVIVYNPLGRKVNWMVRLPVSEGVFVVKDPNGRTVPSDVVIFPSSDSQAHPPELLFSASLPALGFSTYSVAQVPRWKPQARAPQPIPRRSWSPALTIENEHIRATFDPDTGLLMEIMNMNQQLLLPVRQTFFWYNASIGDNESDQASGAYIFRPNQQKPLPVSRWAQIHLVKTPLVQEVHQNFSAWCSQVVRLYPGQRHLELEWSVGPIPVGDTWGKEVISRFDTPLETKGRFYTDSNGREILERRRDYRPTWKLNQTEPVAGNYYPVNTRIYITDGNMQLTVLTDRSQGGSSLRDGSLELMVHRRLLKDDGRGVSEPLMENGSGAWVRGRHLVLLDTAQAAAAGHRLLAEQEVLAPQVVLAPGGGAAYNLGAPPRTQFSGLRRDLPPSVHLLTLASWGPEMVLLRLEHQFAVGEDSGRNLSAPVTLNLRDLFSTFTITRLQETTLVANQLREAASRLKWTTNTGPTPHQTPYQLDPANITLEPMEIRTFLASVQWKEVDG
T1 sequence (Q42656 16-378): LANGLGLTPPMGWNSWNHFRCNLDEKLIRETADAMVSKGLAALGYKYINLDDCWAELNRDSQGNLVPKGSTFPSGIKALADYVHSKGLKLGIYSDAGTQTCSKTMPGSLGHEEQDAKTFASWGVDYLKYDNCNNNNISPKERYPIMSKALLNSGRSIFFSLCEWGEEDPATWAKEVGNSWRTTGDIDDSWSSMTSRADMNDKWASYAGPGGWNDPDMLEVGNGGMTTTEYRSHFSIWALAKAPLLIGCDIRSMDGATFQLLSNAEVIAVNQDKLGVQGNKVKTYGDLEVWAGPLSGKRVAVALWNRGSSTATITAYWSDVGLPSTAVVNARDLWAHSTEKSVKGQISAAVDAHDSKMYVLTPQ
T2 sequence (P69328 25-640): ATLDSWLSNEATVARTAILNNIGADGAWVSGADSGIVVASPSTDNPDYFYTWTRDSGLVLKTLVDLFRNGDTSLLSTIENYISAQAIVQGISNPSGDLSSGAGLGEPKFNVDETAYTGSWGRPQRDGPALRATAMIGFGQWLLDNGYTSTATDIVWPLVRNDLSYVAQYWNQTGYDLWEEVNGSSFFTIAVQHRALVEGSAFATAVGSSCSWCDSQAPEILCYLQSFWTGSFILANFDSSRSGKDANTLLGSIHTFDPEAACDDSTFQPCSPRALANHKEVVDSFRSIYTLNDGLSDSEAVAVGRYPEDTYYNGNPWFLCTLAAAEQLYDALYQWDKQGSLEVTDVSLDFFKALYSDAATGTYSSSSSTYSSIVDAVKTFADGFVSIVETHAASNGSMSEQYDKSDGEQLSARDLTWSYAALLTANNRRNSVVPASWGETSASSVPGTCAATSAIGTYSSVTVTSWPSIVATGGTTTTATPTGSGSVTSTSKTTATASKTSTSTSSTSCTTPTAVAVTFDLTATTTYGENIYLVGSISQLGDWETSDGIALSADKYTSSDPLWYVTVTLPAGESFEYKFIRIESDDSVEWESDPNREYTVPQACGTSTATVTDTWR
T4 sequence (Q2UCU3 19-1005): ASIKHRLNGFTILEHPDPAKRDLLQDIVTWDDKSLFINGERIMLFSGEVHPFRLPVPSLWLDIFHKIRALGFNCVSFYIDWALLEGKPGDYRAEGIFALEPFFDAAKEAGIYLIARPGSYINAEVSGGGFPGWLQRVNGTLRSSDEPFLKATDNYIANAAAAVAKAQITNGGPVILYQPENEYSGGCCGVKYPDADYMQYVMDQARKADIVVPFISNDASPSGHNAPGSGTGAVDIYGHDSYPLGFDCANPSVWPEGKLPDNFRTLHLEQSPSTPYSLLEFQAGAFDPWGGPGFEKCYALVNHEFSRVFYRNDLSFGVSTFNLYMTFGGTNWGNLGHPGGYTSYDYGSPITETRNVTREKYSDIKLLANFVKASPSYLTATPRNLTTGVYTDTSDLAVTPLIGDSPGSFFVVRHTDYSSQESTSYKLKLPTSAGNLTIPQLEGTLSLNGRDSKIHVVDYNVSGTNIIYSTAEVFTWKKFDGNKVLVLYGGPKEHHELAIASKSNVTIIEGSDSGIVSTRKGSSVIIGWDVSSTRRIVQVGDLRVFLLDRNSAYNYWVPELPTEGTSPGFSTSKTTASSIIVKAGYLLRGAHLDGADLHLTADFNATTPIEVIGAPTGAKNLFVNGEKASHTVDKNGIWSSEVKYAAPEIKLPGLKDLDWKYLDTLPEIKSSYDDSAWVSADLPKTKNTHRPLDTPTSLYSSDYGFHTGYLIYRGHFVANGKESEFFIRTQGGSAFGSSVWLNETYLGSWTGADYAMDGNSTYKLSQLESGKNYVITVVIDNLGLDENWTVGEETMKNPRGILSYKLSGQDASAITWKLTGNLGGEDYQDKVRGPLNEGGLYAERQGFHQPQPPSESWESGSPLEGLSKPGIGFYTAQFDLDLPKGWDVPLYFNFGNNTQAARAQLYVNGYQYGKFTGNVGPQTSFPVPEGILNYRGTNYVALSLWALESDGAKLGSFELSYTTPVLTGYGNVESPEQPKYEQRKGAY
T5 sequence (P00722 2-1024): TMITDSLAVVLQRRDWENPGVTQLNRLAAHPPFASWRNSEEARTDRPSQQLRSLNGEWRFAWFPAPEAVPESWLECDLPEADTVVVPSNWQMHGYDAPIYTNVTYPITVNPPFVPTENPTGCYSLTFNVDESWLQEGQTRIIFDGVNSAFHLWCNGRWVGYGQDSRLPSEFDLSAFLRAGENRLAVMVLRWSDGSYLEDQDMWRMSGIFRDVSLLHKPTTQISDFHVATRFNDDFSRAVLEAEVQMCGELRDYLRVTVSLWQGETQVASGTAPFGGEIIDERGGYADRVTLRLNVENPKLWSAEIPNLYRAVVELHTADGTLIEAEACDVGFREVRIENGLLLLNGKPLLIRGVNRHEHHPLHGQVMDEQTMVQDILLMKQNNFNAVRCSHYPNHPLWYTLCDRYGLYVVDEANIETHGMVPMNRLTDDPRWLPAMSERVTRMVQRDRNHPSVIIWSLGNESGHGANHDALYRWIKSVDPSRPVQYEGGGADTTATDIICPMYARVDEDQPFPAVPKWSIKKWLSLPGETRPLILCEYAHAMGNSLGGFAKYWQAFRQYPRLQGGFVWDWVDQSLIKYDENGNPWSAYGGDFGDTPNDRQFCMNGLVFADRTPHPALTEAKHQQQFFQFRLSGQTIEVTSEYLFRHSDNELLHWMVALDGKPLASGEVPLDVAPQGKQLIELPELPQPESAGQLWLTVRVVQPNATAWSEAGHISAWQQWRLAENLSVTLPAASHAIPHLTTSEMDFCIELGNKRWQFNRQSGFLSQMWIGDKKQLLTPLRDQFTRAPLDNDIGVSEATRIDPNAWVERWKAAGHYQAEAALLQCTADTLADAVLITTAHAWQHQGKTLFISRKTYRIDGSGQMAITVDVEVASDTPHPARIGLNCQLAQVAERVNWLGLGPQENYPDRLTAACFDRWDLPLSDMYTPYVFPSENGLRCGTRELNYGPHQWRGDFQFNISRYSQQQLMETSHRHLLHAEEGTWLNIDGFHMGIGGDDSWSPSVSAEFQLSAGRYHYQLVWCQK
T3 sequence (C0HJB3 whole entry): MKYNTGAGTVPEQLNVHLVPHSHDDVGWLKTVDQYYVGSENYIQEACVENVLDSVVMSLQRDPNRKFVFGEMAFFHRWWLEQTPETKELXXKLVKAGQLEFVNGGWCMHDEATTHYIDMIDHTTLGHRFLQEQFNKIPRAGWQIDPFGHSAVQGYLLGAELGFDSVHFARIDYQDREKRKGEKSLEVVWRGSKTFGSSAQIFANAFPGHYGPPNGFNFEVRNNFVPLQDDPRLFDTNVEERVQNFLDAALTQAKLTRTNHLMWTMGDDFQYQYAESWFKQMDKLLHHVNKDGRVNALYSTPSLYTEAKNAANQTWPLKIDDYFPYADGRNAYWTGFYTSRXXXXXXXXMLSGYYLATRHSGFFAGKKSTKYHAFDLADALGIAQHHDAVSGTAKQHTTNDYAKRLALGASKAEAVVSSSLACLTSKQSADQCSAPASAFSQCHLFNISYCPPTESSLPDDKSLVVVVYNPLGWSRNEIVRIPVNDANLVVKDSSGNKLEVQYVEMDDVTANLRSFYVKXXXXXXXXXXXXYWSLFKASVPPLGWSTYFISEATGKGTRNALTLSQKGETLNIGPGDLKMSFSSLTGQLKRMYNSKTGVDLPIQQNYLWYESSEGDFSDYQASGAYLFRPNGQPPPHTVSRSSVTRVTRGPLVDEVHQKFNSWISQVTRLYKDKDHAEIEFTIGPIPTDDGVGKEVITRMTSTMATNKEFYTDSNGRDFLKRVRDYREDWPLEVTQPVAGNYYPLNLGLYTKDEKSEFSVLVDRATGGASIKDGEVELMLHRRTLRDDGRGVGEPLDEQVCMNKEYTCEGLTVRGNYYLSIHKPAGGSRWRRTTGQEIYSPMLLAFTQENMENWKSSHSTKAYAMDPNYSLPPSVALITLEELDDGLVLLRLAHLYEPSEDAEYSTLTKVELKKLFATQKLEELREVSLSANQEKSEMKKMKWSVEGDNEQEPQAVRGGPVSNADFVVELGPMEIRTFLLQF

| SMILES | inhibition at 100 µM [1] | inhibition at 100 µM [2] | % Inhibition at 0.1 mM [3] | inhibition at 100 µM [4] | % Inhibition at 0.1 mM [5] | % Inhibition at 0.1 mM [6] | % Inhibition at 0.1 mM ([7]; rice) | % Inhibition at 0.1 mM ([7]; yeast) | % Inhibition at 0.1 mM ([8]; Jack beans) | % Inhibition at 0.1 mM ([8]; bovine kidney) | inhibition at 100 µM [9] | inhibition at 100 µM [10] | inhibition at 1000 µM (α-mannosidase) |
| --- | --- | --- | --- | --- | --- | --- | --- | --- | --- | --- | --- | --- | --- |
| CCCCCCCC[C@@H]1[C@@H](O)[C@H](O)[C@H](O)CN1CCCCCCCC [compound 15, (2R,3R,4R,5R)-1,2-Dioctylpiperidine-3,4,5-triol] | < 15% | < 15% | - (“-“: no inhibition (or less than 15%) detected.) | < 15% | - (“-“: no inhibition (or less than 15%) detected.) | - (“-“: no inhibition (or less than 15%) detected.) | - (“-“: no inhibition (or less than 15%) detected.) | - (“-“: no inhibition (or less than 15%) detected.) | - (“-“: no inhibition (or less than 15%) detected.) | - (“-“: no inhibition (or less than 15%) detected.) | < 15% | < 15% | 7% |
| CCCCCCCC[C@H]1[C@@H](O)[C@H](O)[C@H](O)CN1CCCCCCCC [compound 14, (2S,3R,4R,5R)-1,2-Dioctylpiperidine-3,4,5-triol] | < 15% | < 15% | - (“-“: no inhibition (or less than 15%) detected.) | < 15% | 30% | - (“-“: no inhibition (or less than 15%) detected.) | - (“-“: no inhibition (or less than 15%) detected.) | - (“-“: no inhibition (or less than 15%) detected.) | - (“-“: no inhibition (or less than 15%) detected.) | - (“-“: no inhibition (or less than 15%) detected.) | < 15% | < 15% | 4% |
